Source: patent publication US20070128217A1 (priority 2003, published 2007)

Legend:
[1] = tested on: antibodies in sera from SARS patients (sera 1a, 1b, 2, 6, 37, 62, London, SARS-yellow, SARS-green); format: binding, human; design: Binding of serum 6 to linear peptides of protein X1 of SARS-CoV Urbani / Binding of serum 37 to linear peptides of protein X1 of SARS-CoV Urbani / Binding of serum 6 to looped/cyclic peptide (PEPSCAN-ELISA) / Binding of serum 37 to looped/cyclic peptide (PEPSCAN-ELISA) / Binding of serum 37 to looped/cyclic peptides of protein X1 of SARS-CoV Urbani / Binding of serum 6 to linear peptides of protein X2 / Binding of serum 37 to linear peptides of protein X2 / Binding of serum 37 to looped/cyclic peptides of protein X2 of SARS-CoV Urbani / Binding of serum 6 to linear peptides of protein M of SARS-CoV Urbani / Binding of serum 37 to linear peptides of protein M of SARS-CoV Urbani / Binding of serum 6 to looped/cyclic peptides of protein M of SARS-CoV Urbani / Binding of serum 37 to looped/cyclic peptides of protein M of SARS-CoV Urbani / Binding of serum 6 to linear peptides of protein X3 of SARS-CoV Urbani / Binding of serum 37 to linear peptides of protein X3 of SARS-CoV Urbani / Binding of serum 37 to looped/cyclic peptides of protein X3 of SARS-CoV Urbani / Binding of serum 6 to linear peptides of protein X4 of SARS-CoV Urbani / Binding of serum 37 to linear peptides of protein X4 of SARS-CoV Urbani / Binding of serum 37 to looped/cyclic peptides of protein X4 of SARS-CoV Urbani / Binding of serum 6 to linear peptides of protein X5 of SARS-CoV Urbani / Binding of serum 37 to linear peptides of protein X5 of SARS-CoV Urbani / Binding of serum 37 to looped/cyclic peptides of protein X5 of SARS-CoV Urbani / Binding of serum 6 to linear peptides of protein N of SARS-CoV Urbani / Binding of serum 37 to linear peptides of protein N of SARS-CoV Urbani / Binding of serum 6 to linear peptide (PEPSCAN-ELISA) / Binding of serum 1a to looped/cyclic peptides of protein N of SARS-CoV Urbani / Binding of serum 1b to looped/cyclic peptides of protein N of SARS-CoV Urbani / Binding of serum 2 to looped/cyclic peptides of protein N of SARS-CoV Urbani / Binding of serum 6 to looped/cyclic peptides of protein N of SARS-CoV Urbani / Binding of serum 37 to looped/cyclic peptides of protein N of SARS-CoV Urbani / Binding of serum 62 to looped/cyclic peptides of protein N of SARS-CoV Urbani / Binding of serum London to looped/cyclic peptides of protein N of SARS-CoV Urbani / Binding of serum SARS-green to looped/cyclic peptides of protein N of SARS-CoV Urbani: unit not given here
[2] = tested on: rabbit serum obtained by immunizing a rabbit with the SARS-CoV strain Frankfurt 1; format: binding; design: Binding of a rabbit serum to linear peptides / Binding of a rabbit serum to looped peptides / Rabbit serum linear peptides / Rabbit serum looped peptides / Binding of a rabbit serum to linear peptides of protein N of SARS-CoV Urbani (Rabbit serum linear peptides) / Binding of a rabbit serum to looped/cyclic peptides of protein N of SARS-CoV Urbani (Rabbit serum looped peptides): unit not given here
[3] = tested on: control sera (pooled serum of ten healthy LUMC hospital workers; commercial negative donor pooled serum from the Dutch bloodbank); format: binding, human; design: Binding of Control serum LUMC to linear peptides / Binding of Control serum Blood-bank to linear peptides / Binding of Control serum LUMC to looped peptides / Binding of Control Serum Blood-Bank to Looped peptides / Binding of Control serum LUMC to linear peptides of the protein M of SARS-CoV Urbani / Binding of Control serum Blood-bank to linear peptides of the protein M of SARS-CoV Urbani / Binding of Control serum LUMC to looped peptides of the protein M of SARS-CoV Urbani / Binding of Control Serum Blood-Bank to Looped peptides of the protein M of SARS-CoV Urbani: unit not given here

QLRARSVSPKLFIRQ
Binding of serum 1a to linear peptides of protein X4 of SARS-CoV Urbani [1]: 0.7 | Binding of serum 1a to looped/cyclic peptides of protein X4 of SARS-CoV Urbani [1]: 0.7 | Binding of serum 1b to linear peptides of protein X4 of SARS-CoV Urbani [1]: 0.6 | Binding of serum 1b to looped/cyclic peptides of protein X4 of SARS-CoV Urbani [1]: 0.6 | Binding of serum 2 to linear peptides of protein X4 of SARS-CoV Urbani [1]: 0.6 | Binding of serum 2 to looped/cyclic peptides of protein X4 of SARS-CoV Urbani [1]: 0.8 | Binding of serum 6 to linear peptides of protein X4 of SARS-CoV Urbani [1]: 0.9 | Binding of serum 6 to looped/cyclic peptides of protein X4 of SARS-CoV Urbani [1]: 0.9 | Binding of serum 37 to linear peptides of protein X4 of SARS-CoV Urbani [1]: 0.7 | Binding of serum 37 to looped/cyclic peptides of protein X4 of SARS-CoV Urbani [1]: 0.6 | Binding of serum 62 to linear peptides of protein X4 of SARS-CoV Urbani [1]: 0.7 | Binding of serum 62 to looped/cyclic peptides of protein X4 of SARS-CoV Urbani [1]: 0.6 | Binding of serum London to linear peptides of protein X4 of SARS-CoV Urbani [1]: 0.8 | Binding of serum London to looped/cyclic peptides of protein X4 of SARS-CoV Urbani [1]: 0.4 | Binding of serum SARS-green to linear peptides of protein X4 of SARS-CoV Urbani [1]: 0.6 | Binding of serum SARS-green to looped/cyclic peptides of protein X4 of SARS-CoV Urbani [1]: 0.4 | Binding of serum SARS-yellow to linear peptides of protein X4 of SARS-CoV Urbani [1]: 0.3 | Binding of serum SARS-yellow to looped/cyclic peptides of protein X4 of SARS-CoV Urbani [1]: 0.8 | Recognition of the peptide by the rabbit serum [2]: recognized | Binding of Control Serum Blood-Bank to Looped peptides [3]: 0.9 | Binding of Control serum Blood-bank to linear peptides [3]: 0.7 | Binding of Control serum LUMC to linear peptides [3]: 0.6 | Binding of Control serum LUMC to looped peptides [3]: 0.8

LQCINACRIIMRCWL
Binding of serum 1a to linear peptides of protein X1 of SARS-CoV Urbani [1]: 0.7 | Binding of serum 1a to looped/cyclic peptide (PEPSCAN-ELISA) [1]: 0.5 | Binding of serum 1b to linear peptides of protein X1 of SARS-CoV Urbani [1]: 0.5 | Binding of serum 1b to looped/cyclic peptide (PEPSCAN-ELISA) [1]: 0.3 | Binding of serum 2 to linear peptides of protein X1 of SARS-CoV Urbani [1]: 0.5 | Binding of serum 2 to looped/cyclic peptide (PEPSCAN-ELISA) [1]: 0.6 | Binding of serum 6 to linear peptides of protein X1 of SARS-CoV Urbani [1]: 0.6 | Binding of serum 6 to looped/cyclic peptide (PEPSCAN-ELISA) [1]: 1.4 | Binding of serum 37 to linear peptides of protein X1 of SARS-CoV Urbani [1]: 0.7 | Binding of serum 37 to looped/cyclic peptide (PEPSCAN-ELISA) [1]: 0.6 | Binding of serum 62 to linear peptides of protein X1 of SARS-CoV Urbani [1]: 0.6 | Binding of serum 62 to looped/cyclic peptide (PEPSCAN-ELISA) [1]: 0.9 | Binding of serum London to linear peptides of protein X1 of SARS-CoV Urbani [1]: 0.3 | Binding of serum London to looped/cyclic peptide (PEPSCAN-ELISA) [1]: 1.7 | Binding of serum SARS-green to linear peptides of protein X1 of SARS-CoV Urbani [1]: 0.1 | Binding of serum SARS-green to looped/cyclic peptide (PEPSCAN-ELISA) [1]: 0.2 | Binding of serum SARS-yellow to linear peptides of protein X1 of SARS-CoV Urbani [1]: 0.3 | Binding of serum SARS-yellow to looped/cyclic peptide (PEPSCAN-ELISA) [1]: 0.4 | Recognition of the peptide by the rabbit serum [2]: recognized | Binding of Control Serum Blood-Bank to Looped peptides [3]: 0.7 | Binding of Control serum Blood-bank to linear peptides [3]: 0.9 | Binding of Control serum LUMC to linear peptides [3]: 0.7 | Binding of Control serum LUMC to looped peptides [3]: 0.6

LVVILRIGTQVLKTM
Binding of serum 1a to linear peptides of protein X2 [1]: 0.7 | Binding of serum 1a to looped/cyclic peptides of protein X2 of SARS-CoV Urbani [1]: 0.6 | Binding of serum 1b to linear peptides of protein X2 [1]: 0.5 | Binding of serum 1b to looped/cyclic peptides of protein X2 of SARS-CoV Urbani [1]: 0.6 | Binding of serum 2 to linear peptides of protein X2 [1]: 0.5 | Binding of serum 2 to looped/cyclic peptides of protein X2 of SARS-CoV Urbani [1]: 0.4 | Binding of serum 6 to linear peptides of protein X2 [1]: 0.4 | Binding of serum 6 to looped/cyclic peptides of protein X2 of SARS-CoV Urbani [1]: 0.4 | Binding of serum 37 to linear peptides of protein X2 [1]: 0.6 | Binding of serum 37 to looped/cyclic peptides of protein X2 of SARS-CoV Urbani [1]: 0.4 | Binding of serum 62 to linear peptides of protein X2 [1]: 0.7 | Binding of serum 62 to looped/cyclic peptides of protein X2 of SARS-CoV Urbani [1]: 0.7 | Binding of serum London to linear peptides of protein X2 [1]: 0.5 | Binding of serum London to looped/cyclic peptides of protein X2 of SARS-CoV Urbani [1]: 0.3 | Binding of serum SARS-green to linear peptides of protein X2 [1]: 0.5 | Binding of serum SARS-green to looped/cyclic peptides of protein X2 of SARS-CoV Urbani [1]: 0.4 | Binding of serum SARS-yellow to linear peptides of protein X2 [1]: 0.7 | Binding of serum SARS-yellow to looped/cyclic peptides of protein X2 of SARS-CoV Urbani [1]: 0.5 | Binding of a rabbit serum to linear peptides [2]: 0.4 | Binding of a rabbit serum to looped peptides [2]: 0.6 | Binding of Control Serum Blood-Bank to Looped peptides [3]: 0.8 | Binding of Control serum Blood-bank to linear peptides [3]: 0.7 | Binding of Control serum LUMC to linear peptides [3]: 0.7 | Binding of Control serum LUMC to looped peptides [3]: 0.6
